The text below walks through data of patent US20120039888A1, “Methods Of Inhibiting Inflammation-Associated Tissue Damage By Inhibiting Neutrophil Activity” (priority 2008, published 2012).

SMILES strings stand for the structures.

Assay [1] concerns nRBC interactions with adherent leukocytes. In words: nRBC-leukocyte interactions, brightfield intravital microscopy of TNF-α-inflamed cremasteric venules. Conditions: inhibitor given 120 min after TNF-α: PP2 150 μg/kg, SB203580 100 μg, piceatannol 1 mg; compared to vehicle control (DMSO); FIG. 2f. Format: in vivo, mouse (C57BL/6). The method, then: Brightfield intravital microscopy. Brightfield intravital microscopy was performed as previously reported^21,22. For SCD mice, several postcapillary and collecting venules were recorded from 15 min after the surgical preparation (time=0 is surgical section of the cremaster) for 75 minutes (pre-TNF-α), with each venule recorded continuously for at least 2 min. SCD mice were then injected i.p. with 0.5 μg recombinant murine TNF-α (R & D Systems) and then the same venules were videotaped over a period of 90 min (91-180 min), after which venules were recorded again for another 90 min (181-270 min). The role of endothelial selectins was evaluated in identical experiments performed in Selp^−/− or Sele^−/− mice transplanted with BM cells from SCD donor mice, or using antibodies against P- or E-selectin (1 mg/kg) prior to surgery. […] In experiments with non-SCD C57BL/6 mice, TNF-α was administered intrascrotally and images recorded 160-210 min after cytokine injection. […]
Hemodynamic measurements and image analyses for brightfield intravital microscopy. The venular diameter was measured using a video caliper. Centerline RBC velocity was measured for each venule in real time using an optical Doppler velocimeter (Texas A&M, College Station, Tex.). […] Blood flow rate was calculated from the formula: Vmean×π×d^2/4. […]

Assay [2] concerns ROS-producing adherent leukocytes. In words: In vivo detection of ROS-producing adherent leukocytes (dihydroxyrhodamine-123, MFIM). On the set-up: species or system mouse (Balb/c). To be noted: TNF-α-treated mice; pre-treatment with anti-E-selectin 1 mg/kg or n-acetyl cysteine 150 mg/kg. The method, then: In vivo detection of leukocytes producing reactive oxygen species (ROS). Balb/c mice prepared for MFIM were injected i.v. with 29 nmoles of dihydroxyrhodamine-123 (DHR; Molecular Probes, Eugene, Oreg.). DHR uptaken by leukocytes actively producing ROS converts into fluorescent rhodamine-123 (507/529 nm) which can be detected by a bright punctuated pattern in the FITC channel (FIG. 11). In some experiments, mice were pre-treated with 25 μL rabbit anti-platelet serum to deplete platelets, 1 mg/kg of anti-E-selectin antibody, or 150 mg/kg of n-acetyl cysteine. Images were captured in the brightfield and FITC channels before and after injection of 3.5 mg/kg anti-H2d antibody, and the frequency of ROS-producing cells calculated out of all adherent leukocytes in each venular segment.

Assay [3] deals with Balb/c mice. As to the kind of experiment: Vascular permeability, FITC-dextran extravasation in cremasteric venules after anti-H2d. Type of assay: in vivo, mouse (Balb/c). To be noted: TNF-α-treated mice, pre-treatment with antibodies 1 mg/kg or n-acetyl cysteine 150 mg/kg, imaged 30 min later. The method, then: Vascular permeability. To analyze anti-MHC-I-induced vascular damage, Balb/c mice were intravenously infused with 3.5 mg/kg of anti-MHC-I antibodies (to H2d or control H2b) and 1 mg of FITC-Dextran (70 Kd; Sigma-Aldrich) 210 min after TNF-α-treatment.
In some experiments, mice were pre-treated with 25 μL rabbit anti-platelet serum to deplete platelets, 1 mg/kg of control, anti-E-selectin or anti-αMβ2 antibodies, or 150 mg/kg of n-acetyl cysteine. Random fields containing small venules were imaged 30 min later using the FITC channel under a LumPlanFl 10× objective, NA 0.30 w. Images were masked over a threshold to quantify all FITC-Dextran-associated fluorescence intensity as well as the signal corresponding only to intravascular spaces. The percentage of extravasated FITC-Dextran was finally obtained using the formula: [(Total intensity−Intravascular intensity)/Total intensity]×100.

The test system of assay [4] is Balb/c mice. As to the kind of experiment: Antibody-induced acute lung injury (TRALI model), protein content in BAL fluids. Format: in vivo, mouse (Balb/c). To be noted: antibodies 1 mg/kg i.v. or n-acetyl cysteine 150 mg/kg i.v. 5 min before anti-H2d 3.5 mg/kg; BAL 2 h later. The method, then:
Antibody-induced acute lung injury. Balb/c male mice (8-12 week-old) were injected i.v. with 3.5 mg/kg of anti-H2d (clone 34-1-2s) or control H2b (clone 28-8-6s) antibodies. After 2 h, BAL was performed on anesthetized mice by 3 washes with 1 ml PBS each using a 18G needle, and the protein content assessed by the bicinchoninic acid method (BCA; Pierce, Rockford, Ill.). In some experiments, mice were pre-treated as follows: rabbit anti-platelet serum (25 μl; i.p. injection; Accurate Chemicals; Westbury, N.Y.) diluted in 200 μl of PBS, 2 h prior anti-H2d treatment; 1 mg/kg i.v. injection of control or anti-P-selectin, E-selectin or anti-αMβ2 antibodies 5 min before anti-H2d; 150 mg/kg i.v. injection of n-acetyl cysteine 5 min before anti-H2d . Platelet and leukocyte counts from blood samples obtained at the end of the experiment were determined using a hematological Coulter® AC-T diff™ l Analyzer (Beckman Coulter, Miami, Fla.). None of these treatments affected circulating leukocyte counts (not shown). In the TRALI experiments involving intravital imaging of the cremasteric microcirculation, TNF-α was injected intrascrotally to allow the recruitment and imaging of inflammatory leukocytes.

In the case of `CC(C)(C)n1nc(-c2ccc(Cl)cc2)c2c(N)ncnc21` [PP2, 4-amino-5-(4-chlorophenyl)-7-(t-butyl)pyrazolo[3,4-d]pyramidine], the “nRBC (normal red blood cell) interactions with leukocytes” value in assay [1] is on record as “Inhibition of nRBC (normal red blood cell) interactions”.
In the case of `CC(=O)N[C@@H](CS)C(=O)O` [n-acetyl-cysteine], the “ROS-producing adherent leukocytes after anti-H2d” value in assay [2] is recorded as “prevents ROS generation”. Also, the “vascular permeability (FITC-dextran extravasation) after anti-H2d” value in the assay on Balb/c mice [3] is “completely prevented”; in the assay with Balb/c mice [3] (listed as N-acetyl-cysteine), “prevents”. Further, in the assay with Balb/c mice [4], the “lung injury induced by anti-H2d (protein content in BAL fluids)” value is on record as “completely prevented lung injury”.
